Assay results from paper PMC10812672, “Short Antimicrobial Peptide Derived from the Venom Gland Transcriptome of Pamphobeteus verdolaga Increases Gentamicin Susceptibility of Multidrug-Resistant Klebsiella pneumoniae” (Antibiotics, 2023).
Ends that are not written are not given here.

Tested on: multidrug-resistant (MDR) strain of K. pneumoniae, clinical isolate
Test: microbe, parasite or virus in culture
Type: cell-based, Klebsiella pneumoniae
Settings: MDR K. pneumoniae clinical isolate

WKKIKKFF-NH2 [PvAMP66]
MIC: 3.51 µg/mL | IC50 (95% confidence interval in parentheses, read-out: IC50): 15.8 µM | MIC (peptides 1.56–200 µM, antibiotics 1.56–100 µM, 24 h 37 °C): 25.00 µM
